Results as given in patent US12036267B2 (BICT S.R.L., priority 2017, dated 2024).

Assays:
E. coli = assay: Antimicrobial activity (MIC / FIC index) of extracts and nisin; type: cell-based; conditions: nisin alone
Method: (§1) The antimicrobial activity of the composition according to the invention has been assessed in relation to gram-positive and gram-negative bacteria, as well as fungi and yeast, by means of in vitro susceptibility testing with the antimicrobial dilution method (CLSI protocols—Clinical and Laboratory Standards Institute), as a result of which the MIC (Minimum Inhibitory Concentration) was determined for each of the microorganisms in question.
(§2) For all the tests carried out, a positive control for the antimicrobial activity was carried out by using fluconazole (for fungi and yeasts) and ceftriaxone (for bacterial strains) and a negative control (no compounds) in which the correct microbial growth was assessed.
(§3) The FIC index is determined using the following formula:
(§4) FIC Index>1=> no synergistic effect
(§5) In this example, the antimicrobial activity of the individual natural extracts was first assessed as follows:
(§6) The antimicrobial activity of the individual natural extracts was then assessed in association with the composition according to the invention in Example 8:
(§7) The interaction of the composition in Example 8 with other natural antimicrobial peptides, such as nisin, was assessed.
(§8) After determining the antimicrobial activity of nisin alone, the antimicrobial activity of nisin was assessed in association with the composition according to the invention: […]

S. aureus = assay: as above; type: cell-based; conditions: nisin alone
Method: as §1, §2, §3, §4, §5, §6, §7, §8

nisin
MIC (E. coli): E. coli - 18750 UI/ml
MIC (S. aureus): S. aureus - 17 UI/ml
